Measurements as given in patent US20230117034A1, “PYRAZOLOTRIAZINES” (Bayer Aktiengesellschaft, priority 2019, published 2023).

How the values were obtained:
[1] = molecular target: T1, CDK12 protein level in CAL-120 breast cancer cells (Homo sapiens, UniProt Q9NYV4); experiment: CDK12 protein level: Protein Simple (CDK12, CAL-120); assay type: cell-based; settings: CAL-120 cells, 18 h with compound, CDK12/HSP90 peak area ratio vs vehicle, median, read-out: CDK12 protein level in CAL-120 breast ca cells, DC50-[mol/l] (median)
T1 construct: endogenous in cells; host or cells: CAL-120 human breast cancer cells (DSMZ ACC 459)
Outline: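 Cells grown 24 h, then treated with compounds for 18 h at 37° C against DMSO controls. Lysates (0.4 microgramms protein) run on Protein Simple 66-440 kDa size assay with CDK12 and HSP90 loading-control antibodies. CDK12/HSP90 peak-area ratios versus vehicle gave DC50 (50% reduction) by 4-parameter fit.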

[2] = test system: BRCA1 mRNA expression in CAL-120 cells; experiment: qRT-PCR assay: BRCA1 mRNA expression in CAL-120; assay type: cell-based; settings: Homo sapiens; Inhibition of BRCA1 mRNA expression in CAL-120 cells; median; read-out: RTqPCR-CAL-120, IC50, BRCA1 (median)
Outline: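 Human breast cancer cells, 200,000/well, were treated with test agents for 24 h without interruption after a 24 h settling period. Gene expression came from qPCR on cDNA made from 600 ng RNA, relative to GAPDH.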

T1 sequence (Q9NYV4 whole entry): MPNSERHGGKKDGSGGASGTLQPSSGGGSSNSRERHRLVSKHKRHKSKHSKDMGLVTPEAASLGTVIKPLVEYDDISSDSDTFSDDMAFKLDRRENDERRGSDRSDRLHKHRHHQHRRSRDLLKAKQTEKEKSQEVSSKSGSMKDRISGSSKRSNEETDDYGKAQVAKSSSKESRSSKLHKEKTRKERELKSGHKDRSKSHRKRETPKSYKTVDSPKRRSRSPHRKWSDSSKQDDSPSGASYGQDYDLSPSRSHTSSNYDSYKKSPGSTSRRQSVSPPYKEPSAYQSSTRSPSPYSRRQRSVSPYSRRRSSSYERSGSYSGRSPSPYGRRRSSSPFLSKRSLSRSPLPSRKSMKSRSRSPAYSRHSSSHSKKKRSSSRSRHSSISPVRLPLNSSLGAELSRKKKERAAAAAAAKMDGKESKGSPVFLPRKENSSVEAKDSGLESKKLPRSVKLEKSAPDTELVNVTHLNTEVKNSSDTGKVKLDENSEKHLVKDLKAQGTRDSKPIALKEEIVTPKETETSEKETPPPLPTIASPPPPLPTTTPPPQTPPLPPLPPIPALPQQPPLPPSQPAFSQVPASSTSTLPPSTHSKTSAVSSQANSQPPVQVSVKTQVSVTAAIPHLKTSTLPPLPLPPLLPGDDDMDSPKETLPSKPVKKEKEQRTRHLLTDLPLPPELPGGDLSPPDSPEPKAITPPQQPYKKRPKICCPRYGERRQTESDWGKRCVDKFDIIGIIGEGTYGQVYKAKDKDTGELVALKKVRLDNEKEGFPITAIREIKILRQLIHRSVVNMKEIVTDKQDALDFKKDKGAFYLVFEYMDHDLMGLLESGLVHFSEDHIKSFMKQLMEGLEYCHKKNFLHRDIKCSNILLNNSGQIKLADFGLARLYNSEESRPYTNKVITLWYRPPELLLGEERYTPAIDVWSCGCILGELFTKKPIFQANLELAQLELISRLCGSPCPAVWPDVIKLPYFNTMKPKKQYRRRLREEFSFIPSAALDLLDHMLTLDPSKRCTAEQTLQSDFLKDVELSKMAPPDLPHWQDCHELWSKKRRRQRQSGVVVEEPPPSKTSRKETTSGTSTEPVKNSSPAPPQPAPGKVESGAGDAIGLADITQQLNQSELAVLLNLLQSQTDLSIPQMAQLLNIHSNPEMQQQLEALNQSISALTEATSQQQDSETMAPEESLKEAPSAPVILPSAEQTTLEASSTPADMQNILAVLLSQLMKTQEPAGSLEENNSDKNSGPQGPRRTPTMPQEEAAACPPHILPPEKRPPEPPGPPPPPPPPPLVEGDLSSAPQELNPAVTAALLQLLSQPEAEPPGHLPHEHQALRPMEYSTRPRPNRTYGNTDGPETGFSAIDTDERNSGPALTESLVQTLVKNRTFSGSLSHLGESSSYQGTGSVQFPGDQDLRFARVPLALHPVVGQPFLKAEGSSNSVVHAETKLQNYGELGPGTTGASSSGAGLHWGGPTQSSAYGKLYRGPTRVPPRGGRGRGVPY
T1 sequence (O75909 whole entry partner): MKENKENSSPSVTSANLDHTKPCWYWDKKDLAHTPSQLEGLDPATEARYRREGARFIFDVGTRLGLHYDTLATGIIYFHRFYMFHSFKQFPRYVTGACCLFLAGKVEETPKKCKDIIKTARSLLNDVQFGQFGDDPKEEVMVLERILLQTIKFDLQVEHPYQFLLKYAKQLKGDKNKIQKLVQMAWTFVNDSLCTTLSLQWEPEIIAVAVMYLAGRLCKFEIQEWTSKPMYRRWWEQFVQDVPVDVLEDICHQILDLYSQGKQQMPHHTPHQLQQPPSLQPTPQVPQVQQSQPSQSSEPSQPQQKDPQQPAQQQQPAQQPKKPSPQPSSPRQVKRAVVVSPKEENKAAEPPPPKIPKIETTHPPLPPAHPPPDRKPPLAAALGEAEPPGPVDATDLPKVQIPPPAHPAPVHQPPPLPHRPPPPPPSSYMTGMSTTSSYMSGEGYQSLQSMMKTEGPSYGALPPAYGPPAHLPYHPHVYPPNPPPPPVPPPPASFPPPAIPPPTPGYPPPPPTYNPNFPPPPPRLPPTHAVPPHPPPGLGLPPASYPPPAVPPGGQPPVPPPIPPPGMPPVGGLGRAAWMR

| DC50 [1] | IC50 [2] | SMILES |
| --- | --- | --- |
| 0.0446 µM | – | Cc1[nH]c(CNc2nc(N3CCOCC3)nc3c(Br)cnn23)nc1-c1ccccc1 [Example 27, 8-bromo-N-[(5-methyl-4-phenyl-1H-imidazol-2-yl)methyl]-2-(morpholin-4-yl)pyrazolo[1,5-a][1,3,5]triazin-4-amine] |
| 0.00144 µM | 0.0306 µM | Cc1ccnc2[nH]c(CNc3nc(N4CCOCC4)nc4c(C(C)C)cnn34)nc12 [Example 28, N-[(7-methyl-3H-imidazo[4,5-b]pyridin-2-yl)methyl]-2-(morpholin-4-yl)-8-(propan-2-yl)pyrazolo[1,5-a][1,3,5]triazin-4-amine] |
| 0.00915 µM | 0.0841 µM | Fc1ccc(-c2nnc(CNc3nc(N4CCOCC4)nc4c(Br)cnn34)[nH]2)cc1 [Example 29, 8-bromo-N-{[5-(4-fluorophenyl)-4H-1,2,4-triazol-3-yl]methyl}-2-(morpholin-4-yl)pyrazolo[1,5-a][1,3,5]triazin-4-amine] |
| 0.0109 µM | 0.0549 µM | CC(C)c1cnn2c(NCc3ncc(-c4ccccc4)[nH]3)nc(N3CCN(C)CC3)nc12 [Example 31, 2-(4-methylpiperazin-1-yl)-N-[(5-phenyl-1H-imidazol-2-yl)methyl]-8-(propan-2-yl)pyrazolo[1,5-a][1,3,5]triazin-4-amine] |
